Where a SMILES comes first, the peptide text is derived from it. Bridges are numbered along the chain shown (N, C = ends). [ ]: non-standard residue; d: D form. The star is where a group is joined. hPhe(3-Cl-4-CF3) = N[C@@H](CCc1ccc(C(F)(F)F)c(Cl)c1)C(=O)O; NPrPhe(4-CF3) = CCCN[C@@H](Cc1ccc(C(F)(F)F)cc1)C(=O)O; Pip(4,4-F2) = O=C(O)[C@@H]1CC(F)(F)CCN1; NMeGly(cPent) = CN[C@H](C(=O)O)C1CCCC1; NMeD = CN[C@@H](CC(=O)O)C(=O)O; NMeL = CN[C@@H](CC(C)C)C(=O)O; Morpholide = C1CN(*)CCO1; Ac5c = NC1(C(=O)O)CCCC1; NEtG = CCNCC(=O)O; Sar = CNCC(=O)O
Columns and labels:
[1] = target: GDP-bound NRAS wild-type protein (Homo sapiens, UniProt P01111); assay: Binding to NRAS by surface plasmon resonance (SPR), Single Cycle Kinetics
GDP-bound NRAS wild-type protein, sequence (P01111 whole entry): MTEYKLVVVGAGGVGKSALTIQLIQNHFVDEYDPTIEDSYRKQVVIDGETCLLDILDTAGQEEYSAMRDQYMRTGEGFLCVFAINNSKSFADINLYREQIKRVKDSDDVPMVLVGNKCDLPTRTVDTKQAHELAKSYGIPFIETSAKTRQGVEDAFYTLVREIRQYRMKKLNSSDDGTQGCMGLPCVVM

[2] = target: GDP-bound HRAS wild-type protein (Homo sapiens, UniProt P01112); assay: Binding to HRAS by surface plasmon resonance (SPR), Single Cycle Kinetics
GDP-bound HRAS wild-type protein, sequence (P01112 whole entry): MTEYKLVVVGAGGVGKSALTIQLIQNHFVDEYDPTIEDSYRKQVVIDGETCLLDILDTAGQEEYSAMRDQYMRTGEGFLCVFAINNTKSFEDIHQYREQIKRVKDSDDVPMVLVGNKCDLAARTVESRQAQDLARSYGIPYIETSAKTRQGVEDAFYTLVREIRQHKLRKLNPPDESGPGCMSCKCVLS

[3] = KD ratio NRAS/KRAS, class symbols
[4] = KD ratio HRAS/KRAS, class symbols

Structure (SMILES): CCO[C@@H]1C[C@H]2C(=O)NC3(CC(C)(C)C3)C(=O)N(C)[C@@H](C(CC)CC)C(=O)N(C)[C@H](C(=O)N(C)C)CC(=O)N(C)[C@@H](CC3CC3)C(=O)N[C@@H]([C@@H](C)CC)C(=O)N(C)CC(=O)N(C)[C@H]3C/C=C\CCN(C3=O)[C@@H](CC3CCC(F)(F)CC3)C(=O)N(C)CC(=O)N[C@@H](CCc3ccc(C(F)(F)F)c(Cl)c3)C(=O)N2C1 [PP2495]
- NRAS/KRAS (ratio of KD value with respect to NRAS to KD value with respect to KRAS) ([1]; SPR, GDP-bound NRAS wild-type vs GDP-bound KRAS wild-type): A (a compound having 10 or more and less than 20 is denoted as A)
- HRAS/KRAS (ratio of KD value with respect to HRAS to KD value with respect to KRAS) ([2]; SPR, GDP-bound HRAS wild-type vs GDP-bound KRAS wild-type): A (a compound having 10 or more and less than 20 is denoted as A)

Structure (SMILES): CCCN1C(=O)CN(C)C(=O)CN(CC)C(=O)[C@H]([C@@H](C)CC)NC(=O)[C@H](CC(C)C)N(C)C(=O)C[C@@H](C(=O)N2CCOCC2)N(C)C(=O)[C@H](C2CCCC2)N(C)C(=O)C2(CCCC2)NC(=O)[C@@H]2CC(F)(F)CCN2C(=O)[C@H](CCc2ccc(C(F)(F)F)c(Cl)c2)NC(=O)CN(C)C(=O)[C@@H]1Cc1ccc(C(F)(F)F)cc1 [PP0298] ([NMeL]I[NEtG][Sar][NPrPhe(4-CF3)][Sar][hPhe(3-Cl-4-CF3)][Pip(4,4-F2)][Ac5c][NMeGly(cPent)][NMeD]-Morpholide; lactam N-11)
- NRAS/KRAS (ratio of KD for GDP-bound NRAS wild-type to KD for KRAS) ([1]; KD ratio NRAS/KRAS, SPR): B (a compound having 3 or more and less than 10 is denoted as B)
- HRAS/KRAS (ratio of KD for GDP-bound HRAS wild-type to KD for KRAS) ([2]; KD ratio HRAS/KRAS, SPR): C (A compound having a KD ratio of 0.1 or more and less than 3 is denoted as C)

Structure (SMILES): CCO[C@@H]1C[C@H]2C(=O)NC3(CC(C)(C)C3)C(=O)N(C)[C@@H](C(CC)CC)C(=O)N(C)[C@H](C(=O)N3CCCCC3)CC(=O)N(C)[C@H]3CCC/C=C/c4ccc(cc4)C[C@@H](C(=O)N(C)CC(=O)N[C@@H](CCc4ccc(Cl)c(Cl)c4)C(=O)N2C1)N1CC/C=C\C[C@@H](C1=O)N(C)C(=O)CN(C)C(=O)[C@H]([C@@H](C)CC)NC3=O [PP2953]
- NRAS/KRAS (ratio of KD value with respect to GDP-bound NRAS wild-type protein to KD value with respect to KRAS) [1, 3]: AA (a compound having 20 or more is denoted as AA)
- HRAS/KRAS (ratio of KD value with respect to GDP-bound HRAS wild-type protein to KD value with respect to KRAS) [2, 4]: A (a compound having 10 or more and less than 20 is denoted as A)

Structure (SMILES): CC[C@H](C)[C@@H]1NC(=O)[C@H](CC(C)C)N(C)C(=O)C[C@@H](C(=O)N2CCOCC2)N(C)C(=O)[C@H](C2CCCC2)N(C)C(=O)C2(CC2)NC(=O)[C@@H]2CCCN2C(=O)[C@H](CCc2cc(F)c(C(F)(F)F)c(F)c2)NC(=O)CN(C)C(=O)[C@H](Cc2ccc(C(F)(F)F)cc2)N2CCCC[C@@H](C2=O)N(C)C(=O)CN(C)C1=O [PP0559]
- NRAS/KRAS (ratio of KD value with respect to GDP-bound NRAS wild-type protein to KD value with respect to KRAS) ([1]; KD ratio NRAS/KRAS, SPR): B (a compound having 3 or more and less than 10 is denoted as B)
- HRAS/KRAS (ratio of KD value with respect to GDP-bound HRAS wild-type protein to KD value with respect to KRAS) ([2]; KD ratio HRAS/KRAS, SPR): B (a compound having 3 or more and less than 10 is denoted as B)

Structure (SMILES): CCC[C@H]1C(=O)N[C@@H]([C@@H](C)CC)C(=O)N(C)CC(=O)N(C)[C@H]2C/C=C\CCN(C2=O)[C@@H](Cc2ccc(C(F)(F)F)cc2)C(=O)N(C)CC(=O)N[C@@H](CCc2ccc(Cl)c(Cl)c2)C(=O)N2C[C@H](OCC)C[C@H]2C(=O)NC2(CC(C)(C)C2)C(=O)N(C)[C@@H](CC(C)(C)C)C(=O)N(C)[C@H](C(=O)N(C)C)CC(=O)N1C [PP2738]
- NRAS/KRAS (ratio of KD value with respect to GDP-bound NRAS wild-type protein to KD value with respect to KRAS) [1, 3]: AA (a compound having 20 or more is denoted as AA)
- HRAS/KRAS (ratio of KD value with respect to GDP-bound HRAS wild-type protein to KD value with respect to KRAS) [2, 4]: A (a compound having 10 or more and less than 20 is denoted as A)

Structure (SMILES): CCC[C@H]1C(=O)N[C@@H]([C@@H](C)CC)C(=O)N(C2CC2)CC(=O)N(C)[C@H]2C/C=C\CCN(C2=O)[C@@H](Cc2ccc(C(F)F)cc2)C(=O)N(C)CC(=O)N[C@@H](CCc2cc(F)c(C(F)(F)F)c(F)c2)C(=O)N2C[C@H](OC(C)C)C[C@H]2C(=O)NC2(CC(C)(C)C2)C(=O)N(C)[C@@H](C(CC)CC)C(=O)N(C)[C@H](C(=O)N(C)C)CC(=O)N1C [PP2529]
- NRAS/KRAS (ratio of KD value with respect to GDP-bound NRAS wild-type protein to KD value with respect to KRAS) [1, 3]: AA (a compound having 20 or more is denoted as AA)
- HRAS/KRAS (ratio of KD value with respect to GDP-bound HRAS wild-type protein to KD value with respect to KRAS) [2, 4]: A (a compound having 10 or more and less than 20 is denoted as A)

Structure (SMILES): CCO[C@@H]1C[C@H]2C(=O)NC3(CCC3)C(=O)N(C)[C@@H](C3CCCC3)C(=O)N3CCC[C@@H]3CC(=O)N(C)[C@@H](CC3CC3)C(=O)N[C@@H]([C@@H](C)CC)C(=O)N(C)CC(=O)N(C)[C@H]3C/C=C\CCN(C3=O)[C@@H](Cc3ccc(C(F)(F)F)cc3)C(=O)N(C)CC(=O)N[C@@H](CCc3cc(F)c(C(F)(F)F)c(F)c3)C(=O)N2C1 [PP1613]
- NRAS/KRAS (ratio of KD value for NRAS to KD value for KRAS) ([1]; KD ratio, GDP-bound NRAS wild-type vs GDP-bound KRAS wild-type, SPR): B (a compound having 3 or more and less than 10 is denoted as B)
- HRAS/KRAS (ratio of KD value for HRAS to KD value for KRAS) ([2]; KD ratio, GDP-bound HRAS wild-type vs GDP-bound KRAS wild-type, SPR): B (a compound having 3 or more and less than 10 is denoted as B)

— patent publication US20250230193A1, “CYCLIC COMPOUND HAVING SELECTIVE KRAS INHIBITORY EFFECT ON HRAS AND NRAS” (CHUGAI SEIYAKU KABUSHIKI KAISHA, priority 2022, published 2025)
